These results are taken from ChEMBL document CHEMBL3351872, “2- and 3-substituted imidazo[1,2-a]pyrazines as inhibitors of bacterial type IV secretion” (Bioorg Med Chem, 2014).

This test is described as follows: Inhibition of Helicobacter pylori VirB11 HP0525 ATPase expressed in Escherichia coli assessed as reduction in inorganic phosphate release by colorimetric ATPase assay.
Consider `Cc1ccc(S(=O)(=O)Nc2nccn3c(-c4ccc5ccccc5c4)cnc23)cc1`, for which the IC50 was 77 µM. For `Cc1ccc(S(=O)(=O)Nc2ccc(Nc3nc(Br)cn4cc(-c5ccc6ccccc6c5)nc34)cc2)cc1`, the IC50 was found to be 6 µM. For the compound `Cc1ccc(S(=O)(=O)NCCNc2nc(Br)cn3cc(-c4ccc5ccccc5c4)nc23)cc1`, the IC50 stood at 77 µM.
